Results published in paper PMC11240878, “Synthesis, enzyme inhibition assay, and molecular modeling study of novel pyrazolines linked to 4-methylsulfonylphenyl scaffold: antitumor activity and cell cycle analysis” (RSC Advances, 2024).
Each block holds one compound with its values, some of them ahead of it.

Legend:
59 cancer cell lines = assay: NCI 59 cancer cell line panel, single dose; assay type: cell-based, human; details: 10 μM single dose; for MG% (mean growth percent): 59 cell lines
HL-60(TB) = assay: NCI single-dose GI%, leukemia; assay type: cell-based, human; details: 10.0 μM in one dose
K-562 = assay: NCI single-dose GI%, leukemia; assay type: cell-based, human; details: K-562, leukemia; 10.0 μM in one dose
MOLT-4 = assay: NCI single-dose GI%, leukemia; assay type: cell-based, human; details: MOLT-4, leukemia; 10.0 μM in one dose
SR = assay: NCI single-dose GI%, leukemia; assay type: cell-based, human; details: 10.0 μM in one dose
A549/ATCC = assay: NCI single-dose GI%, NSC lung; assay type: cell-based, human; details: 10.0 μM in one dose
EKVX = assay: NCI single-dose GI%, NSC lung; assay type: cell-based, human; details: 10.0 μM in one dose
NCI-H226 = assay: NCI single-dose GI%, NSC lung; assay type: cell-based, human; details: 10.0 μM in one dose
NCI-H522 = assay: NCI single-dose GI%, NSC lung; assay type: cell-based, human; details: 10.0 μM in one dose
MALME-3M = assay: NCI single-dose GI%, melanoma; assay type: cell-based, human; details: 10.0 μM in one dose
UACC-257 = assay: NCI single-dose GI%, melanoma; assay type: cell-based, human; details: UACC-257, melanoma; 10.0 μM in one dose
UO-31 = assay: NCI single-dose GI%, renal; assay type: cell-based, human; details: UO-31, renal; 10.0 μM in one dose
HOP-62 = assay: NCI single-dose GI%, NSC lung; assay type: cell-based, human; details: HOP-62, NSC lung; 10.0 μM in one dose
NCI-H322M = assay: NCI single-dose GI%, NSC lung; assay type: cell-based, human; details: 10.0 μM in one dose
HT29 = assay: NCI single-dose GI%, colon; assay type: cell-based, human; details: 10.0 μM in one dose
U251 = assay: NCI single-dose GI%, CNS; assay type: cell-based, human; details: 10.0 μM in one dose
OVCAR-8 = assay: NCI single-dose GI%, ovarian; assay type: cell-based, human; details: OVCAR-8, ovarian; 10.0 μM in one dose
SK-OV-3 = assay: NCI single-dose GI%, ovarian; assay type: cell-based, human; details: SK-OV-3, ovarian; 10.0 μM in one dose
CAKI-1 = assay: NCI single-dose GI%, renal; assay type: cell-based, human; details: CAKI-1, renal; 10.0 μM in one dose
TK-10 = assay: NCI single-dose GI%, renal; assay type: cell-based, human; details: TK-10, renal; 10.0 μM in one dose
BT-549 = assay: NCI single-dose GI%, breast; assay type: cell-based, human; details: BT-549, breast; 10.0 μM in one dose
T-47D = assay: NCI single-dose GI%, breast; assay type: cell-based, human; details: 10.0 μM in one dose
RPMI-8226 = assay: NCI single-dose GI%, leukemia; assay type: cell-based, human; details: RPMI-8226, leukemia; 10.0 μM in one dose
HCT-116 = assay: NCI single-dose GI%, colon; assay type: cell-based, human; details: HCT-116, colon; 10.0 μM in one dose
SNB-75 = assay: NCI single-dose GI%, CNS; assay type: cell-based, human; details: SNB-75, CNS; 10.0 μM in one dose
SK-MEL-2 = assay: NCI single-dose GI%, melanoma; assay type: cell-based, human; details: SK-MEL-2, melanoma; 10.0 μM in one dose
UACC-62 = assay: NCI single-dose GI%, melanoma; assay type: cell-based, human; details: UACC-62, melanoma; 10.0 μM in one dose
PC-3 = assay: NCI single-dose GI%, prostate; assay type: cell-based, human; details: PC-3, prostate; 10.0 μM in one dose
MCF7 = assay: NCI single-dose GI%, breast; assay type: cell-based, human; details: 10.0 μM in one dose
MDA-MB-468 = assay: NCI single-dose GI%, breast; assay type: cell-based, human; details: MDA-MB-468, breast; 10.0 μM in one dose
HL-60 cells = assay: Cell cycle analysis by flow cytometry; assay type: cell-based, human; details: at IC50 concentration
Description: Flow cytometry measures cell growth in different cell cycle phases (G0–G1, S, G2/M and pre-G1).[33,77] This study aimed to find out how the target compounds affect the growth of cancer cells by examining at how they change the cell cycle and cause apoptosis in HL-60 cells.
The cell cycle analysis was conducted similarly to our prior study, using the leukemia HL-60 cell line. The cells were stained with the DNA fluorochrome PI and analyzed using a FACSCalibur flow cytometer.[33,77]

COLO 205 = assay: NCI single-dose GI%, colon; assay type: cell-based, human; details: COLO 205, colon; 10.0 μM in one dose
HCT-15 = assay: NCI single-dose GI%, colon; assay type: cell-based, human; details: HCT-15, colon; 10.0 μM in one dose
A498 = assay: NCI single-dose GI%, renal; assay type: cell-based, human; details: 10.0 μM in one dose
KM12 = assay: NCI single-dose GI%, colon; assay type: cell-based, human; details: 10.0 μM in one dose
SK-MEL-5 = assay: NCI single-dose GI%, melanoma; assay type: cell-based, human; details: SK-MEL-5, melanoma; 10.0 μM in one dose
OVCAR-4 = assay: NCI single-dose GI%, ovarian; assay type: cell-based, human; details: OVCAR-4, ovarian; 10.0 μM in one dose
MDA-MB-231/ATCC = assay: NCI single-dose GI%, breast; assay type: cell-based, human; details: 10.0 μM in one dose
SF-268 = assay: NCI single-dose GI%, CNS; assay type: cell-based, human; details: SF-268, CNS; 10.0 μM in one dose

SMILES: Cc1ccc(C2CC(c3ccccc3)=NN2C(=O)c2ccc(S(C)(=O)=O)cc2)cc1 (stereo not shown) [Compound 18f, (4-(Methylsulfonyl)phenyl)(3-phenyl-5-(4-tolyl)-4,5-dihydro-1H-pyrazol-1-yl)methanone]
PCE (positive cytotoxic effect: ratio of cell lines with growth inhibition >10% to total cell lines) (59 cancer cell lines): 21/59
MG% (mean growth percent) (59 cancer cell lines): 93.80%
GI% (HL-60(TB)): 14%
GI% (MOLT-4): 30%
GI% (RPMI-8226): 18%
GI% (A549/ATCC): 16%
GI% (EKVX): 13%
GI% (HOP-62): 12%
GI% (NCI-H226): 17%
GI% (NCI-H522): 37%
GI% (HCT-116): 20%
GI% (HT29): 12%
GI% (SNB-75): 20%
GI% (U251): 11%
GI% (SK-MEL-2): 11%
GI% (UACC-257): 26%
GI% (UACC-62): 12%
GI% (CAKI-1): 16%
GI% (UO-31): 24%
GI% (PC-3): 28%
GI% (MCF7): 11%
GI% (T-47D): 16%
GI% (MDA-MB-468): 15%
phase of cell cycle arrest (HL-60 cells): S/G2 phase
melting point: 225 to 227 °C

SMILES: CS(=O)(=O)c1ccc(C(=O)N2N=C(c3ccccc3)CC2c2ccc3c(c2)OCO3)cc1 (stereo not shown) [Compound 18m, (5-(Benzo[d][1,3]dioxol-5-yl)-3-phenyl-4,5-dihydro-1H-pyrazol-1-yl)(4-(methylsulfonyl)phenyl)methanone]
PCE (positive cytotoxic effect: ratio of cell lines with growth inhibition >10% to total cell lines) (59 cancer cell lines): 18/59
MG% (mean growth percent) (59 cancer cell lines): 91.96%
GI% (HL-60(TB)): 63%
GI% (K-562): 40%
GI% (MOLT-4): 48%
GI% (A549/ATCC): 20%
GI% (HOP-62): 17%
GI% (NCI-H226): 11%
GI% (NCI-H522): 13%
GI% (COLO 205): 19%
GI% (HCT-116): 18%
GI% (HCT-15): 14%
GI% (SNB-75): 12%
GI% (SK-OV-3): 16%
GI% (A498): 14%
GI% (UO-31): 34%
GI% (PC-3): 15%
GI% (MCF7): 16%
GI% (BT-549): 14%
GI% (T-47D): 22%
melting point: 155 to 157 °C

SMILES: COc1ccc(C2=NN(C(=O)c3ccc(S(C)(=O)=O)cc3)C(c3ccc(OC)c(OC)c3)C2)c(OC)c1 (stereo not shown) [Compound 18p, (3-(2,4-Dimethoxyphenyl)-5-(3,4-dimethoxyphenyl)-4,5-dihydro-1H-pyrazol-1-yl)(4-(methylsulfonyl)phenyl)methanone]
PCE (positive cytotoxic effect: ratio of cell lines with growth inhibition >10% to total cell lines) (59 cancer cell lines): 11/59
MG% (mean growth percent) (59 cancer cell lines): 97.33%
GI% (HL-60(TB)): 31%
GI% (K-562): 23%
GI% (HOP-62): 26%
GI% (NCI-H226): 15%
GI% (NCI-H522): 13%
GI% (HCT-116): 17%
GI% (SF-268): 11%
GI% (SK-OV-3): 16%
GI% (UO-31): 25%
GI% (T-47D): 25%
GI% (MDA-MB-468): 13%
melting point: 169 to 171 °C

The next lines start with results.

melting point: 259 to 261 °C
SMILES: CS(=O)(=O)c1ccc(C(=O)N2N=C(c3ccccc3)CC2c2ccccc2)cc1 (stereo not shown) [Compound 18a, (3,5-Diphenyl-4,5-dihydro-1H-pyrazol-1-yl)(4-(methylsulfonyl)phenyl)methanone]
PCE (positive cytotoxic effect: ratio of cell lines with growth inhibition >10% to total cell lines) (59 cancer cell lines): 11/59
MG% (mean growth percent) (59 cancer cell lines): 98.11%
GI% (HL-60(TB)): 32%
GI% (K-562): 19%
GI% (MOLT-4): 32%
GI% (SR): 13%
GI% (A549/ATCC): 18%
GI% (EKVX): 11%
GI% (NCI-H226): 11%
GI% (NCI-H522): 18%
GI% (MALME-3M): 11%
GI% (UACC-257): 14%
GI% (UO-31): 12%

melting point: 311 to 313 °C
SMILES: CS(=O)(=O)c1ccc(C(=O)N2N=C(c3ccc(F)cc3)CC2c2ccccc2)cc1 (stereo not shown) [Compound 18d, (3-(4-Fluorophenyl)-5-phenyl-4,5-dihydro-1H-pyrazol-1-yl)(4-(methylsulfonyl)phenyl)methanone]
PCE (positive cytotoxic effect: ratio of cell lines with growth inhibition >10% to total cell lines) (59 cancer cell lines): 18/59
MG% (mean growth percent) (59 cancer cell lines): 93.02%
GI% (HL-60(TB)): 57%
GI% (K-562): 32%
GI% (MOLT-4): 37%
GI% (A549/ATCC): 24%
GI% (EKVX): 16%
GI% (HOP-62): 29%
GI% (NCI-H322M): 14%
GI% (NCI-H522): 43%
GI% (HT29): 14%
GI% (U251): 17%
GI% (UACC-257): 37%
GI% (OVCAR-8): 15%
GI% (SK-OV-3): 13%
GI% (CAKI-1): 14%
GI% (TK-10): 12%
GI% (UO-31): 27%
GI% (BT-549): 15%
GI% (T-47D): 17%

melting point: 216 to 218 °C
SMILES: COc1ccc(C2=NN(C(=O)c3ccc(S(C)(=O)=O)cc3)C(c3ccccc3)C2)c(OC)c1 (stereo not shown) [Compound 18n, (3-(2,4-Dimethoxyphenyl)-5-phenyl-4,5-dihydro-1H-pyrazol-1-yl)(4-(methylsulfonyl)phenyl)methanone]
PCE (positive cytotoxic effect: ratio of cell lines with growth inhibition >10% to total cell lines) (59 cancer cell lines): 20/59
MG% (mean growth percent) (59 cancer cell lines): 93.24%
GI% (HL-60(TB)): 55%
GI% (K-562): 26%
GI% (MOLT-4): 38%
GI% (EKVX): 28%
GI% (HOP-62): 20%
GI% (NCI-H226): 14%
GI% (NCI-H522): 20%
GI% (HCT-116): 18%
GI% (KM12): 12%
GI% (SNB-75): 15%
GI% (SK-MEL-2): 18%
GI% (SK-MEL-5): 21%
GI% (OVCAR-4): 12%
GI% (CAKI-1): 15%
GI% (UO-31): 24%
GI% (PC-3): 15%
GI% (MCF7): 65%
GI% (MDA-MB-231/ATCC): 12%
GI% (T-47D): 14%
GI% (MDA-MB-468): 36%

melting point: 150 to 152 °C
SMILES: COc1ccc(C2=NN(C(=O)c3ccc(S(C)(=O)=O)cc3)C(c3cc(OC)c(OC)c(OC)c3)C2)cc1OC (stereo not shown) [Compound 18q, (3-(3,4-Dimethoxyphenyl)-5-(3,4,5-trimethoxyphenyl)-4,5-dihydro-1H-pyrazol-1-yl)(4-(methylsulfonyl)phenyl)methanone]
PCE (positive cytotoxic effect: ratio of cell lines with growth inhibition >10% to total cell lines) (59 cancer cell lines): 6/59
MG% (mean growth percent) (59 cancer cell lines): 97.51%
GI% (SNB-75): 13%
GI% (A498): 13%
GI% (CAKI-1): 13%
GI% (UO-31): 24%
GI% (MCF7): 12%
GI% (MDA-MB-468): 12%
